Test results published in paper PMC10333884, “Large‐scale phosphomimetic screening identifies phospho‐modulated motif‐based protein interactions” (Molecular Systems Biology, 2023).
Non-standard residues stand in square brackets, D forms with d. Residues, ends and D or L forms follow the SMILES beside them. pT = C[C@@H](OP(=O)(O)O)[C@H](N)C(=O)O; pS = N[C@@H](COP(=O)(O)O)C(=O)O

Tests used:
Type in all cases: binding
[1] = target: T1, GGA1 VHS (Homo sapiens, UniProt Q9UJY5); assay: FP displacement assay, GGA1 VHS
T1 construct: GGA1_VHS__Q9UJY5_1_157; GST (cleaved yes); made in house; host or cells: Escherichia coli BL21-Gold(DE3)
T1 sequence (Q9UJY5 1-157): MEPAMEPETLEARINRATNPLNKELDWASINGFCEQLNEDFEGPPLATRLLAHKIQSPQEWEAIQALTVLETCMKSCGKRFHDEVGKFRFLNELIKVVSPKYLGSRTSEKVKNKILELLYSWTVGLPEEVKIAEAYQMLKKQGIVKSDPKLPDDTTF
Method: (§1) FP experiments were performed as described previously (Kliche et al, [2021]). Shortly, in order to monitor the binding event, FITC‐labelled peptides were used (excitation 495 nm, emission: 535 nm) and the FP signal was recorded in mP on a SpectraMax iD5 Multi‐Mode Microplate Reader (Molecular Devices) by measuring the emitted light in two angels. The measurements were performed at room temperature and prepared in nonbinding black half area 96‐well microplates (Corning®; 50 μl/well). For measuring direct binding, that is saturation curves, a 1:1 dilution series of protein domain (25 μl/well) was generated in 50 mM sodium phosphate buffer pH 7.4 and the measurement performed with 5 nM FITC‐labelled peptide (25 μl/well). The buffer‐corrected values were subsequently plotted with PRISM and fitted to the quadratic equation (Gianni et al, [2005]).
(§2) The 1:1 dilution series in this experiment was performed with the unlabelled peptide in 50 mM sodium phosphate buffer pH 7.4, so that each well‐contained unlabelled peptide (25 μl) at a certain concentration and pre‐formed complex (25 μl). The KD values of this indirectly monitored binding event were calculated as described previously (Nikolovska‐Coleska et al, [2004]). All measurements were at least in technical triplicates as well as biological duplicates when indicated. An amplitude shift between repeat measurements in the displacement experiments was occasionally observed due to variations in the protein preparations. If that was the case, the “active” protein concentration was back‐calculated according to the quadratic equation from the saturation curves performed in parallel. By comparing the active protein concentrations in the complex between different protein preparations, the amplitude was normalised.

[2] = target: T2, PDCD6IP Alix V domain (Homo sapiens, UniProt Q8WUM4); assay: FP displacement assay, PDCD6IP Alix V domain; conditions: probe FITC-HIV1_Gag 5 nM, 50 mM sodium phosphate pH 7.4, room temperature, at least three technical replicates, read-out: KD values ± SEM
T2 construct: GST (cleaved yes); made in house; host or cells: Escherichia coli BL21-Gold(DE3)
T2 sequence (Q8WUM4 360-702): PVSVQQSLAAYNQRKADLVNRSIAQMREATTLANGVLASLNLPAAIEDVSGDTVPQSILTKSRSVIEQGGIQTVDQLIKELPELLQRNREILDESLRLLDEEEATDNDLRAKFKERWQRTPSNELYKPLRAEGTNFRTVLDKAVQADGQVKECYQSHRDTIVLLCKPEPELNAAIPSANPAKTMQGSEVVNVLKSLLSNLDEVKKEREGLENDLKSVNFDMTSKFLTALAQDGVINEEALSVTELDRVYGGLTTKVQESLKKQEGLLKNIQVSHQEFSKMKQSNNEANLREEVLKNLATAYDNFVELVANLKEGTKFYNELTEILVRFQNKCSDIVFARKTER
Method: as §1, §2

[3] = target: T1, GGA1 VHS; assay: ITC, GGA1 VHS; set-up: Ka: unit not given beside the values
[4] = FP displacement, probe FITC-IGF2R 5 nM, 50 mM sodium phosphate pH 7.4, room temperature, at least three technical replicates, read-out: KD values ± SEM

Row | Compound | Kd [2] [µM] | Kd [1, 4] [µM] | other results
1 | CC(=O)N[C@@H](CC(=O)O)C(=O)N[C@@H](CC(C)C)C(=O)N[C@@H](CC(C)C)C(=O)N[C@H](C(=O)N[C@@H](CO)C(=O)N1CCC[C@H]1C(=O)N[C@@H](CC(=O)O)C(=O)N[C@H](C(=O)NCC(=O)N[C@@H](CC(C)C)C(=O)N[C@@H](CC(C)C)C(=O)N[C@@H](CCCCN)C(=O)N[C@@H](CC(C)C)C(=O)N[C@@H](C)C(=O)N[C@@H](CO)C(=O)N[C@@H](Cc1ccc(O)cc1)C(N)=O)C(C)C)[C@@H](C)OP(=O)(O)O [JUN59–73 pS] (Ac-DLL[pT]SPDVGLLKLASY-NH2) |  |  | Kd [1]: 1900 µM
2 | CC(=O)N[C@H](C(=O)N[C@@H](COP(=O)(O)O)C(=O)N1CCC[C@H]1C(=O)N[C@@H](CC(C)C)C(=O)N[C@H](C(=O)N[C@@H](CO)C(=O)N[C@@H](CC(C)C)C(=O)N[C@@H](Cc1ccc(O)cc1)C(=O)N1CCC[C@H]1C(=O)N[C@@H](C)C(=O)N[C@@H](CC(C)C)C(=O)N[C@@H](CCC(=O)O)C(=O)N[C@@H](C)C(=O)N[C@@H](CCCNC(=N)N)C(=O)N[C@@H](C)C(=O)N[C@@H](CC(C)C)C(N)=O)C(C)C)[C@@H](C)O [OTUD5_507–522 pS] (Ac-T[pS]PLVSLYPALEARAL-NH2) | 116 ± 20 |  | 
3 | CC[C@H](C)[C@H](NC(=O)[C@H](CC(=O)O)NC(=O)[C@H](CC(=O)O)NC(=O)[C@H](CO)NC(=O)[C@@H](NC(=O)[C@@H]1CCCN1C(=O)[C@H](CO)NC(=O)[C@H](CCCCN)NC(=O)[C@H](Cc1ccc(O)cc1)NC(C)=O)[C@@H](C)O)C(=O)N[C@@H](CO)C(=O)N[C@@H](CC(C)C)C(=O)N[C@@H](CC(C)C)C(=O)N[C@@H](Cc1c[nH]cn1)C(=O)N[C@@H](CCC(=O)O)C(=O)N[C@@H](CO)C(=O)N[C@@H](CCC(N)=O)C(=O)N[C@@H](CO)C(N)=O [RNF11_6–21 wt] (Ac-YKSPTSDDISLLHESQS-NH2) |  | 420 ± 50 | Kd ([3]; ITC (iTC200), 50 mM sodium phosphate pH 7.4, 1 mM DTT, average of the runs, technical duplicates): 919 µM; Ka ([3]; ITC single run: date 200220, injection 1): 2030; Ka ([3]; ITC single run: date 200220, injection 2): 744

Continued, in another order:

Row | Kd [2] [µM] | Kd [1, 4] [µM] | Compound | other results
4 | 13 ± 2 |  | CC[C@H](C)[C@H](NC(=O)[C@H](CCCCN)NC(=O)[C@H](CC(C)C)NC(=O)[C@@H]1CCCN1C(=O)[C@H](COP(=O)(O)O)NC(=O)[C@@H](NC(=O)[C@H](CCC(N)=O)NC(=O)[C@@H]1CCCN1C(=O)[C@H](Cc1ccc(O)cc1)NC(=O)[C@H](CC(C)C)NC(=O)[C@@H]1CCCN1C(=O)[C@H](CCCNC(=N)N)NC(=O)[C@H](CC(C)C)NC(=O)[C@@H]1CCCN1C(=O)[C@H](CO)NC(=O)[C@H](C)NC(C)=O)[C@@H](C)CC)C(N)=O [FOXK1_212–227 pS] (Ac-ASPLRPLYPQI[pS]PLKI-NH2) | 
5 |  | 96 ± 8 | CC(=O)N[C@@H](CCC(=O)O)C(=O)N[C@H](C(=O)N[C@@H](Cc1ccc(O)cc1)C(=O)N[C@@H](Cc1ccc(O)cc1)C(=O)N[C@@H](CC(C)C)C(=O)N[C@@H](CO)C(=O)N[C@@H](CC(=O)O)C(=O)N[C@@H](CO)C(=O)N1CCC[C@H]1C(=O)N[C@@H](CC(C)C)C(=O)N[C@@H](CC(C)C)C(=O)NCC(=O)N1CCC[C@H]1C(=O)N1CCC[C@H]1C(=O)N[C@H](C(=O)NCC(N)=O)C(C)C)[C@@H](C)O [GTSE1_145–160 wt] (Ac-ETYYLSDSPLLGPPVG-NH2) | 
6 | 68 ± 6 |  | CC(=O)N[C@H](C(=O)N[C@@H](CO)C(=O)N1CCC[C@H]1C(=O)N[C@@H](CC(C)C)C(=O)N[C@H](C(=O)N[C@@H](CO)C(=O)N[C@@H](CC(C)C)C(=O)N[C@@H](Cc1ccc(O)cc1)C(=O)N1CCC[C@H]1C(=O)N[C@@H](C)C(=O)N[C@@H](CC(C)C)C(=O)N[C@@H](CCC(=O)O)C(=O)N[C@@H](C)C(=O)N[C@@H](CCCNC(=N)N)C(=O)N[C@@H](C)C(=O)N[C@@H](CC(C)C)C(N)=O)C(C)C)[C@@H](C)O [OTUD5_507–522 wt] (Ac-TSPLVSLYPALEARAL-NH2) | 
